# In ChEMBL document CHEMBL1136423, “Phosphate ester serum albumin affinity tags greatly improve peptide half-life in vivo” (Bioorg Med Chem Lett, 2003):
# Where a SMILES comes first, the peptide text is derived from it. Bridges are numbered along the chain shown (N, C = ends). The star is where a group is joined. X3 = O=C(CCCCCOP(=O)(O)OC1CCC(c2ccccc2)(c2ccccc2)CC1)*; X4 = O=C(CCC(=O)*)NS(=O)(=O)c1ccc2ccccc2c1; X2 = O=C(CCCCCOP(=O)(O)Oc1ccc2ccccc2c1)*; X1 = O=C(CCCCCOP(=O)(O)OCCCCCc1ccccc1)*
# Assays:
# [1] = Half-life was measured at the concentration of 2.0 mg/kg in rabbit blood sample; assay type: ADME, organism-based, Oryctolagus cuniculus; design: dose 2 mg/kg
# [2] = Clearance was measured at the concentration of 2.0 mg/kg in rabbit blood sample; assay type: ADME, organism-based, Oryctolagus cuniculus; design: dose 2 mg/kg
# Coagulation factor VII [3] = target: T1, Coagulation factor VII (Homo sapiens, UniProt P08709); test: Inhibitory activity for the compound against coagulation factor VIIa in presence of 1% ovalbumin
# T1 sequence (P08709 whole entry): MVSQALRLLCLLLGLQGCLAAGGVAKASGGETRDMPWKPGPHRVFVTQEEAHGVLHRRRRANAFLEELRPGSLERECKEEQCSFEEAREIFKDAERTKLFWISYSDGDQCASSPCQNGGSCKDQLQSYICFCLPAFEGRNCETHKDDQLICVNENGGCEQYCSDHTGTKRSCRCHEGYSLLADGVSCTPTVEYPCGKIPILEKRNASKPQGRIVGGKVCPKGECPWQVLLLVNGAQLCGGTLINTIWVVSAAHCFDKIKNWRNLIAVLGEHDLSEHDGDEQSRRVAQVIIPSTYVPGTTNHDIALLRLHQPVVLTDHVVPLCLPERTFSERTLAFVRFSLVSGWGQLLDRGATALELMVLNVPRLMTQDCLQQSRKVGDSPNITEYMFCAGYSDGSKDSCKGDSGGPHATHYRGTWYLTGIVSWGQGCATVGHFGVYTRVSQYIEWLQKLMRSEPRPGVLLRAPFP
# Albumin = Albumin (Homo sapiens, UniProt P02768); test: Compound was measured for its retention time in human serum albumin;where k`=tt-t0/t0; tt=retention time of compound and t0=retention time of DMSO
# Coagulation factor VII [4] = target: T1, Coagulation factor VII; test: Inhibitory activity for the compound against coagulation factor VIIa in presence of 0.1% human serum albumin
# Coagulation factor VII [5] = target: T1, Coagulation factor VII; test: Inhibitory activity for the compound against coagulation factor VIIa in presence of 0.1% rabbit serum albumin
# [6] = Half-life was measured at the concentration of 1.11 mg/kg in rabbit blood sample; assay type: ADME, organism-based, Oryctolagus cuniculus; design: dose 1.11 mg/kg
# [7] = Clearance was measured at the concentration of 1.11 mg/kg in rabbit blood sample; assay type: ADME, organism-based, Oryctolagus cuniculus; design: dose 1.11 mg/kg
# Albumin, sequence (P02768 whole entry): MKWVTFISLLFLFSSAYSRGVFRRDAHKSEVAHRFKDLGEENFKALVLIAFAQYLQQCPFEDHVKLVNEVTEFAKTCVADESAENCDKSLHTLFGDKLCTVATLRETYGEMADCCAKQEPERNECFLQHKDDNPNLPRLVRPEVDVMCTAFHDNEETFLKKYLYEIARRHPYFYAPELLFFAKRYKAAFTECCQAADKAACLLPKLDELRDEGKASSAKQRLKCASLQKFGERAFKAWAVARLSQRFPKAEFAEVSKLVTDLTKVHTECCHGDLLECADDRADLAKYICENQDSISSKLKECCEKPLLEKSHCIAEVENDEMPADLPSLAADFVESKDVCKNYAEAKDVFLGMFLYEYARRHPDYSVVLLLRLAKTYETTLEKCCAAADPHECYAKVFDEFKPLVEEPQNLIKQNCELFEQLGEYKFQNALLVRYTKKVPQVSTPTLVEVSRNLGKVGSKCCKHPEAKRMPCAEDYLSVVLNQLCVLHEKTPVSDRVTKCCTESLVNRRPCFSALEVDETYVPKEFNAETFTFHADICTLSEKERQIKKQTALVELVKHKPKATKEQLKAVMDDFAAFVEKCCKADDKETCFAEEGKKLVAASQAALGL
SMILES,half-life [1] [min],clearance [2] [mL/min/kg],IC50 (Coagulation factor VII [3]) [nM],k'/k'+1 (Albumin),IC50 (Coagulation factor VII [4]) [nM],IC50 (Coagulation factor VII [5]) [nM],half-life [6] [min],clearance [7] [mL/min/kg]
CC[C@H](C)[C@@H]1NC(=O)[C@H](CCCN=C(N)N)NC(=O)[C@@H]2CCCN2C(=O)[C@H](CC(N)=O)NC(=O)[C@H](CC(=O)O)NC(=O)[C@@H](NC(=O)[C@H](CC(C)C)NC(=O)[C@H](C)NC(=O)CCCCCOP(=O)(O)OC2CCC(c3ccccc3)(c3ccccc3)CC2)CSSC[C@@H](C(=O)N[C@@H](CCC(N)=O)C(=O)N[C@@H](Cc2ccccc2)C(=O)N[C@H](C(=O)N[C@@H](CCC(=O)O)C(=O)NCC(N)=O)C(C)C)NC(=O)[C@H](Cc2ccc(O)cc2)NC(=O)[C@H](Cc2c[nH]c3ccccc23)NC(=O)[C@H](CCCN=C(N)N)NC(=O)[C@H](CC(=O)O)NC1=O (X3-ALCDNPRIDRWYCQFVEG-NH2; disulfide 3-13),222,0.185,4,0.78,3.4,90,–,–
CC[C@H](C)[C@@H]1NC(=O)[C@H](CCCN=C(N)N)NC(=O)[C@@H]2CCCN2C(=O)[C@H](CC(N)=O)NC(=O)[C@H](CC(=O)O)NC(=O)[C@@H](NC(=O)[C@H](CC(C)C)NC(=O)[C@H](C)NC(=O)CCC(=O)NS(=O)(=O)c2ccc3ccccc3c2)CSSC[C@@H](C(=O)N[C@@H](CCC(N)=O)C(=O)N[C@@H](Cc2ccccc2)C(=O)N[C@H](C(=O)N[C@@H](CCC(=O)O)C(=O)NCC(N)=O)C(C)C)NC(=O)[C@H](Cc2ccc(O)cc2)NC(=O)[C@H](Cc2c[nH]c3ccccc23)NC(=O)[C@H](CCCN=C(N)N)NC(=O)[C@H](CC(=O)O)NC1=O (X4-ALCDNPRIDRWYCQFVEG-NH2; disulfide 3-13),30,1.64,3.6,0.97,2.5,24,–,–
CC[C@H](C)[C@@H]1NC(=O)[C@H](CCCN=C(N)N)NC(=O)[C@@H]2CCCN2C(=O)[C@H](CC(N)=O)NC(=O)[C@H](CC(=O)O)NC(=O)[C@@H](NC(=O)[C@H](CC(C)C)NC(=O)[C@H](C)NC(=O)CCCCCOP(=O)(O)OCCCCCc2ccccc2)CSSC[C@@H](C(=O)N[C@@H](CCC(N)=O)C(=O)N[C@@H](Cc2ccccc2)C(=O)N[C@H](C(=O)N[C@@H](CCC(=O)O)C(=O)NCC(N)=O)C(C)C)NC(=O)[C@H](Cc2ccc(O)cc2)NC(=O)[C@H](Cc2c[nH]c3ccccc23)NC(=O)[C@H](CCCN=C(N)N)NC(=O)[C@H](CC(=O)O)NC1=O (X1-ALCDNPRIDRWYCQFVEG-NH2; disulfide 3-13),79.1,0.505,2,0.92,2.4,22,–,–
CC[C@H](C)[C@@H]1NC(=O)[C@H](CCCN=C(N)N)NC(=O)[C@@H]2CCCN2C(=O)[C@H](CC(N)=O)NC(=O)[C@H](CC(=O)O)NC(=O)[C@@H](NC(=O)[C@H](CC(C)C)NC(=O)[C@H](C)NC(=O)CCCCCOP(=O)(O)Oc2ccc3ccccc3c2)CSSC[C@@H](C(=O)N[C@@H](CCC(N)=O)C(=O)N[C@@H](Cc2ccccc2)C(=O)N[C@H](C(=O)N[C@@H](CCC(=O)O)C(=O)NCC(N)=O)C(C)C)NC(=O)[C@H](Cc2ccc(O)cc2)NC(=O)[C@H](Cc2c[nH]c3ccccc23)NC(=O)[C@H](CCCN=C(N)N)NC(=O)[C@H](CC(=O)O)NC1=O (X2-ALCDNPRIDRWYCQFVEG-NH2; disulfide 3-13),34.8,0.707,1.9,0.92,2,9.2,–,–
CC[C@H](C)[C@@H]1NC(=O)[C@H](CCCN=C(N)N)NC(=O)[C@@H]2CCCN2C(=O)[C@H](CC(N)=O)NC(=O)[C@H](CC(=O)O)NC(=O)[C@@H](NC(=O)[C@H](CC(C)C)NC(=O)[C@H](C)NC(C)=O)CSSC[C@@H](C(=O)N[C@@H](CCC(N)=O)C(=O)N[C@@H](Cc2ccccc2)C(=O)N[C@H](C(=O)N[C@@H](CCC(=O)O)C(=O)NCC(N)=O)C(C)C)NC(=O)[C@H](Cc2ccc(O)cc2)NC(=O)[C@H](Cc2c[nH]c3ccccc23)NC(=O)[C@H](CCCN=C(N)N)NC(=O)[C@H](CC(=O)O)NC1=O (Ac-ALCDNPRIDRWYCQFVEG-NH2; disulfide 3-13),–,–,9.2,0.21,11,9.7,4.18,26.8
